Measurements: patent EP4722207A1, “OXOISOINDOLINYL-SUBSTITUTED TETRAHYDROPYRIMIDINEDIONE DERIVATIVE AND USE THEREOF” (Gluetacs Therapeutics (Shanghai) Co., Ltd., priority 2023, dated 2024)

Experiments:
Assay type in all cases: cell-based
WEE1 = target: T1, WEE1 (Homo sapiens, UniProt P30291+Q96SW2); assay: Western-blot assay, substrate protein degradation in hPBMCs: WEE1; conditions: for WEE1 substrate protein remaining %: compounds at 50 nM and 500 nM, 24 hours; for substrate protein remaining % WEE1: 24 hours of compound treatment, 50 nM and 500 nM
T1 construct: effects of the compounds of the present disclosure on the expression of target proteins in cells; endogenous in cells; host or cells: human PBMCs (hPBMCs)

IKZF1 = target: T2, IKZF1 (Homo sapiens, UniProt Q13422+Q96SW2); assay: Western-blot assay, substrate protein degradation in hPBMCs: IKZF1; conditions: for IKZF1 substrate protein remaining %: compounds at 50 nM and 500 nM, 24 hours; for substrate protein remaining % IKZF1: 24 hours of compound treatment, 50 nM and 500 nM
T2 construct: effects of the compounds of the present disclosure on the expression of target proteins in cells; endogenous in cells; host or cells: human PBMCs (hPBMCs)

IKZF2 = target: T3, IKZF2 (Homo sapiens, UniProt Q96SW2+Q9UKS7); assay: Western-blot assay, substrate protein degradation in hPBMCs: IKZF2; conditions: for IKZF2 substrate protein remaining %: compounds at 50 nM and 500 nM, 24 hours; for substrate protein remaining % IKZF2: 24 hours of compound treatment, 50 nM and 500 nM
T3 construct: effects of the compounds of the present disclosure on the expression of target proteins in cells; endogenous in cells; host or cells: human PBMCs (hPBMCs)

IKZF3 = target: T4, IKZF3 (Homo sapiens, UniProt Q96SW2+Q9UKT9); assay: Western-blot assay, substrate protein degradation in hPBMCs: IKZF3; conditions: for IKZF3 substrate protein remaining %: compounds at 50 nM and 500 nM, 24 hours; for substrate protein remaining % IKZF3: 24 hours of compound treatment, 50 nM and 500 nM
T4 construct: effects of the compounds of the present disclosure on the expression of target proteins in cells; endogenous in cells; host or cells: human PBMCs (hPBMCs)

CK1α = target: T5, CK1α (Homo sapiens, UniProt P48729+Q96SW2); assay: Western-blot assay, substrate protein degradation in hPBMCs: CK1α; conditions: for CK1α substrate protein remaining %: compounds at 50 nM and 500 nM, 24 hours; for substrate protein remaining % CK1α: 24 hours of compound treatment, 50 nM and 500 nM
T5 construct: effects of the compounds of the present disclosure on the expression of target proteins in cells; endogenous in cells; host or cells: human PBMCs (hPBMCs)

GSPT1 = target: T6, GSPT1 (Homo sapiens, UniProt P15170+Q96SW2); assay: Western-blot assay, substrate protein degradation in hPBMCs: GSPT1; conditions: for GSPT1 substrate protein remaining %: compounds at 50 nM and 500 nM, 24 hours; for substrate protein remaining % GSPT1: 24 hours of compound treatment, 50 nM and 500 nM
T6 construct: effects of the compounds of the present disclosure on the expression of target proteins in cells; endogenous in cells; host or cells: human PBMCs (hPBMCs)
T6 sequence (P15170 whole entry): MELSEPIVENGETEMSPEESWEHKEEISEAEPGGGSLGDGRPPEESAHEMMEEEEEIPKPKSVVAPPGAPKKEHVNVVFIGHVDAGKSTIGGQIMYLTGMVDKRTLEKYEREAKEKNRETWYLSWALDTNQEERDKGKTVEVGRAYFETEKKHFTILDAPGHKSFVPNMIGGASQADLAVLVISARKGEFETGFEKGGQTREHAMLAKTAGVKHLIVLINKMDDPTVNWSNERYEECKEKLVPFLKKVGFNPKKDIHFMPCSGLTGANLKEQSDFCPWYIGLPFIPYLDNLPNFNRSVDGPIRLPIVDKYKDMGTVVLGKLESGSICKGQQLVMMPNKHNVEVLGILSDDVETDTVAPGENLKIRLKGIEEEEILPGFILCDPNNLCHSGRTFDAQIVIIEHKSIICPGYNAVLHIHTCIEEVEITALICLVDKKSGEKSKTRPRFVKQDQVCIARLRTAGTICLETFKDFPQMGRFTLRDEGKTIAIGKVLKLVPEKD
T6 sequence (Q96SW2 whole entry): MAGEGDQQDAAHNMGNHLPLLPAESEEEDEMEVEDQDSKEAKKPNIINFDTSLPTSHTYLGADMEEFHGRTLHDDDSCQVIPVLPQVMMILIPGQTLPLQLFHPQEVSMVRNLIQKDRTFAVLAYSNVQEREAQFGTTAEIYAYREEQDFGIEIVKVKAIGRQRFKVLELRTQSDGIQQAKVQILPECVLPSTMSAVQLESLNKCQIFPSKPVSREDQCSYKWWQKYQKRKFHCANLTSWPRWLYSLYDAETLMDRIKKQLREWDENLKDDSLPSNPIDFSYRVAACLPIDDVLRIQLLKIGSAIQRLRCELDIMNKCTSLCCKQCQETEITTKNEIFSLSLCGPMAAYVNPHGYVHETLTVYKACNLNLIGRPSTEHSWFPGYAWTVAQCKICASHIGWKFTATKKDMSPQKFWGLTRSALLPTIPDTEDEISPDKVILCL
T6 sequence (Q16531 whole entry partner): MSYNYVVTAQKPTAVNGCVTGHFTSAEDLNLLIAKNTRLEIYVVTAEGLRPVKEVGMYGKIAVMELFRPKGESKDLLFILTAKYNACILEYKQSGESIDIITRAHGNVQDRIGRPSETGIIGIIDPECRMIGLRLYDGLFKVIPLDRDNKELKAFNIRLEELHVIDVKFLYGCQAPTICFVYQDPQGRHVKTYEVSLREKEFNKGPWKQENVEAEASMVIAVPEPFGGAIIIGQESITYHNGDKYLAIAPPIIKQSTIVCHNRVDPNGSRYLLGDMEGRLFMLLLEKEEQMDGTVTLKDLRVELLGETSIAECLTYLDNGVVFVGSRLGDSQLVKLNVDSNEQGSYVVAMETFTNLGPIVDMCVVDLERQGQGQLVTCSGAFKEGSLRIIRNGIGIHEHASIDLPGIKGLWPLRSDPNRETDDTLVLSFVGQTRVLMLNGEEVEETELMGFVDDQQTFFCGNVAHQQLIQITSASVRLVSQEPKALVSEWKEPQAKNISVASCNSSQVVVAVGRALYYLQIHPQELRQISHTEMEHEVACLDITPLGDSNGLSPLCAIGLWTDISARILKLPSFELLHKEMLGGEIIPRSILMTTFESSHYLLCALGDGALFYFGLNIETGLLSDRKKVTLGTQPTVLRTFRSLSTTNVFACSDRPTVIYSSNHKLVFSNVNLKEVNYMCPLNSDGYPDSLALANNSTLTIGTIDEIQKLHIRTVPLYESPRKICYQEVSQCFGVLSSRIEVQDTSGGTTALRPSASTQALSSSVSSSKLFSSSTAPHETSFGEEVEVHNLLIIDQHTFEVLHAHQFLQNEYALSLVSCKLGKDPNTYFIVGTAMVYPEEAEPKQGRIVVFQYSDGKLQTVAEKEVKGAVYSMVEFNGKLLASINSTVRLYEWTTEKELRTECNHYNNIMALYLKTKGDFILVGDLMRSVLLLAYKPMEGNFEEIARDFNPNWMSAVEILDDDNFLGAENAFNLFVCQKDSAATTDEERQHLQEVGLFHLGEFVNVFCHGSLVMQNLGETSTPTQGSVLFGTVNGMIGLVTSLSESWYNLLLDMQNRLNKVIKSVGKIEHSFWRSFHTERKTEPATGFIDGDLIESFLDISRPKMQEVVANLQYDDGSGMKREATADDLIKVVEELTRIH

T5 sequence (P48729 whole entry): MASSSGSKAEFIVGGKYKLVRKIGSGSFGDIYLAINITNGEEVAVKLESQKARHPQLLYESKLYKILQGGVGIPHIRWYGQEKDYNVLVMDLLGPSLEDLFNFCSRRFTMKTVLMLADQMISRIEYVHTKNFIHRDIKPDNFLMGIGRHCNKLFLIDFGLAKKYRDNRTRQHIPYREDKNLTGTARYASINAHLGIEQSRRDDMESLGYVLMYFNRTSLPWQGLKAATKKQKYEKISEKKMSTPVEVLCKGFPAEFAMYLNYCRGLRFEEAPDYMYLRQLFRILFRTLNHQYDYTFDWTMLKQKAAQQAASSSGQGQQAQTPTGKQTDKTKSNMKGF
T5 sequence (Q96SW2 whole entry): as the sequence (Q96SW2 whole entry) above
T5 sequence (Q16531 whole entry partner): as the sequence (Q16531 whole entry partner) above
T4 sequence (Q9UKT9 whole entry): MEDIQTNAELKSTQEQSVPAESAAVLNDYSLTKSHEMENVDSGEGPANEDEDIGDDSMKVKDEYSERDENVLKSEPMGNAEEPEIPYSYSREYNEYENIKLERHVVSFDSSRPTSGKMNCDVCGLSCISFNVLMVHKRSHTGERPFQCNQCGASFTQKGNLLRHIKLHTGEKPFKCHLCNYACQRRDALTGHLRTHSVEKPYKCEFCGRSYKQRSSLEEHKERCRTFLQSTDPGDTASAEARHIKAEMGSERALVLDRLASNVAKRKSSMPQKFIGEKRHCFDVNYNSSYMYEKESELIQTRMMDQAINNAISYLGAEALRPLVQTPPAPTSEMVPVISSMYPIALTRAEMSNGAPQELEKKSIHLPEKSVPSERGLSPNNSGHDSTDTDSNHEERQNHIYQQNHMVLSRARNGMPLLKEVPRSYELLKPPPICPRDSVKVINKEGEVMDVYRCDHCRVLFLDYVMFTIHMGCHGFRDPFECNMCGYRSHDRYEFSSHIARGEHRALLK
T4 sequence (Q96SW2 whole entry): as the sequence (Q96SW2 whole entry) above
T4 sequence (Q16531 whole entry partner): as the sequence (Q16531 whole entry partner) above
T3 sequence (Q9UKS7 whole entry): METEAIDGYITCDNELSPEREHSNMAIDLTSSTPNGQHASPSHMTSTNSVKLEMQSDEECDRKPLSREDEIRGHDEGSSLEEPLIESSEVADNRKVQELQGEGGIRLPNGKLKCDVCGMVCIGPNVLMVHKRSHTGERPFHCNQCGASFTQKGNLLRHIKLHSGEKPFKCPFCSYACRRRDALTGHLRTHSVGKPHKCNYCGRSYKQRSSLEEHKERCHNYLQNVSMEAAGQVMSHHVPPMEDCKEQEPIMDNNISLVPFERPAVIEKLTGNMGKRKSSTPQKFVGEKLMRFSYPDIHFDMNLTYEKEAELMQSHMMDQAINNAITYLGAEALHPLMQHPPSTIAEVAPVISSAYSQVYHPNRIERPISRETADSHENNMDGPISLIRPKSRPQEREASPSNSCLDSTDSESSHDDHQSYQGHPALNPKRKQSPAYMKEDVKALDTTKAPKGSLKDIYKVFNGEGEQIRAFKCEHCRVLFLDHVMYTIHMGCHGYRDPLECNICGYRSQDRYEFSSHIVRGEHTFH
T3 sequence (Q96SW2 whole entry): as the sequence (Q96SW2 whole entry) above
T3 sequence (Q16531 whole entry partner): as the sequence (Q16531 whole entry partner) above
T2 sequence (Q13422 whole entry): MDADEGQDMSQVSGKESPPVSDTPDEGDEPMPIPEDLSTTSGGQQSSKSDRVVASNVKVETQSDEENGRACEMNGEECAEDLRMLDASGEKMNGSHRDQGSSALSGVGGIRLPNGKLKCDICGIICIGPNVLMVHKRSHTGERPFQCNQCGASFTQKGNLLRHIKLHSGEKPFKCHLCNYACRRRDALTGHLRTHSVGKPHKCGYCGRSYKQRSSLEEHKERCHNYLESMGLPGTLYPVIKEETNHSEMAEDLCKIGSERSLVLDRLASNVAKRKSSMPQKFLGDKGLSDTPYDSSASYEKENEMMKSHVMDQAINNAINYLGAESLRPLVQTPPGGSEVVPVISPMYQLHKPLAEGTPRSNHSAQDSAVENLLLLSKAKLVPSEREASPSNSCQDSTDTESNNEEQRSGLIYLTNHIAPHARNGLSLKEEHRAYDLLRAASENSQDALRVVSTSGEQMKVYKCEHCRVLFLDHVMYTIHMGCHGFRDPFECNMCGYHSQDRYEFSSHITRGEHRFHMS
T2 sequence (Q96SW2 whole entry): as the sequence (Q96SW2 whole entry) above
T2 sequence (Q16531 whole entry partner): as the sequence (Q16531 whole entry partner) above

SMILES	WEE1 substrate protein remaining % (WEE1)	IKZF1 substrate protein remaining % (IKZF1)	IKZF2 substrate protein remaining % (IKZF2)	IKZF3 substrate protein remaining % (IKZF3)	CK1α substrate protein remaining % (CK1α)	GSPT1 substrate protein remaining % (GSPT1)	substrate protein remaining % WEE1 (WEE1)	substrate protein remaining % IKZF1 (IKZF1)	substrate protein remaining % IKZF2 (IKZF2)	substrate protein remaining % IKZF3 (IKZF3)	substrate protein remaining % CK1α (CK1α)	substrate protein remaining % GSPT1 (GSPT1)
O=C1CCN(N2Cc3cc(CN4CCN(c5ccc(Cl)nc5)CC4)ccc3C2=O)C(=O)N1 [GT-05435, 1-(5-((4-(6-chloropyridin-3-yl)piperazin-1-yl)methyl)-1-oxoisoindolin-2-yl)dihydropyrimidine-2,4(1H,3H)-dione]	A ("A" is defined as 0% ≤ substrate protein remaining % ≤ 80%)	B ("B" is defined as 80%< substrate protein remaining %≤ 100%)	B ("B" is defined as 80%< substrate protein remaining %≤ 100%)	B ("B" is defined as 80%< substrate protein remaining %≤ 100%)	B ("B" is defined as 80%< substrate protein remaining %≤ 100%)	A ("A" is defined as 0% ≤ substrate protein remaining % ≤ 80%)						
O=C1CCN(N2C(=O)c3ccc(CN4CC5CCC(C4)N5C(c4ccccc4)c4ccccc4)cc3C2=O)C(=O)N1 [GT-06453, 5-((8-benzhydryl-3,8-diazabicyclo[3.2.1]octan-3-yl)methyl)-2-(2,4-dioxotetrahydropyrimidin-1(2H)-yl)isoindoline-1,3-dione]	B ("B" is defined as 80%< substrate protein remaining %≤ 100%)	B ("B" is defined as 80%< substrate protein remaining %≤ 100%)	A ("A" is defined as 0% ≤ substrate protein remaining % ≤ 80%)	B ("B" is defined as 80%< substrate protein remaining %≤ 100%)	B ("B" is defined as 80%< substrate protein remaining %≤ 100%)	B ("B" is defined as 80%< substrate protein remaining %≤ 100%)						
CC1(C)CCC(CN2CC3CC(C2)N3Cc2ccc3c(c2)C(=O)N(N2CCC(=O)NC2=O)C3=O)=C(c2ccc(Cl)cc2)C1 [GT-06457, 5-((3-((4'-chloro-5,5-dimethyl-3,4,5,6-tetrahydro-[1,1'-biphenyl]-2-yl)methyl)-3,6-diazabicyclo[3.1.1]heptan-6-yl)methyl)-2-(2,4-dioxotetrahydropyrimidin-1(2H)-yl)isoindoline-1,3-dione]	A ("A" is defined as 0% ≤ substrate protein remaining % ≤ 80%)	A ("A" is defined as 0% ≤ substrate protein remaining % ≤ 80%)	A ("A" is defined as 0% ≤ substrate protein remaining % ≤ 80%)	A ("A" is defined as 0% ≤ substrate protein remaining % ≤ 80%)	A ("A" is defined as 0% ≤ substrate protein remaining % ≤ 80%)	A ("A" is defined as 0% ≤ substrate protein remaining % ≤ 80%)						
O=C1CCN(N2C(=O)c3ccc(CN4CCn5c(nnc5C(F)(F)F)C4)cc3C2=O)C(=O)N1 [GT-05253, 2-(2,4-dioxotetrahydropyrimidin-1(2H)-yl)-5-((3-(trifluoromethyl)-5,6-dihydro-[1,2,4]triazolo[4,3-a]pyrazin-7(8H)-yl)methyl)isoindoline-1,3-dione]	B ("B" is defined as 80%< substrate protein remaining %≤ 100%)	B ("B" is defined as 80%< substrate protein remaining %≤ 100%)	B ("B" is defined as 80%< substrate protein remaining %≤ 100%)	B ("B" is defined as 80%< substrate protein remaining %≤ 100%)	B ("B" is defined as 80%< substrate protein remaining %≤ 100%)	A ("A" is defined as 0% ≤ substrate protein remaining % ≤ 80%)						
O=C1CCN(N2Cc3cc(CN4CCC(c5ccccc5C(F)(F)F)CC4)ccc3C2=O)C(=O)N1 [GT-06891, 1-(1-oxo-5-((4-(2-(trifluoromethyl)phenyl)piperidin-1-yl)methyl)isoindolin-2-yl)dihydropyrimidine-2,4(1H,3H)-dione]	A ("A" is defined as 0% ≤ substrate protein remaining % ≤ 80%)	B ("B" is defined as 80%< substrate protein remaining %≤ 100%)	A ("A" is defined as 0% ≤ substrate protein remaining % ≤ 80%)	B ("B" is defined as 80%< substrate protein remaining %≤ 100%)	B ("B" is defined as 80%< substrate protein remaining %≤ 100%)	A ("A" is defined as 0% ≤ substrate protein remaining % ≤ 80%)						
O=C1CCN(N2C(=O)c3ccc(CN4CCC(c5n[nH]c6cc(F)ccc56)CC4)cc3C2=O)C(=O)N1 [GT-07530, 2-(2,4-dioxotetrahydropyrimidin-1(2H)-yl)-5-((4-(6-fluoro-1H-indazol-3-yl)piperidin-1-yl)methyl)isoindoline-1,3-dione]							A (0% ≤ substrate protein remaining % ≤ 80%)	B (80%< substrate protein remaining %≤ 100%)	B (80%< substrate protein remaining %≤ 100%)	B (80%< substrate protein remaining %≤ 100%)	A (0% ≤ substrate protein remaining % ≤ 80%)	A (0% ≤ substrate protein remaining % ≤ 80%)
O=C1CCN(N2Cc3cc(CN4CCN(C(c5ccccc5)c5ccncc5)CC4)ccc3C2=O)C(=O)N1 (stereo not drawn) [GT-04891, 1-(1-oxo-5-((4-(phenyl(pyridin-4-yl)methyl)piperazin-1-yl)methyl)isoindolin-2-yl)dihydropyrimidine-2,4(1H,3H)-dione]	B ("B" is defined as 80%< substrate protein remaining %≤ 100%)	A ("A" is defined as 0% ≤ substrate protein remaining % ≤ 80%)	A ("A" is defined as 0% ≤ substrate protein remaining % ≤ 80%)	B ("B" is defined as 80%< substrate protein remaining %≤ 100%)	B ("B" is defined as 80%< substrate protein remaining %≤ 100%)	A ("A" is defined as 0% ≤ substrate protein remaining % ≤ 80%)						
O=C1CCN(N2C(=O)c3ccc(CN4CCC(n5cnc6cc(F)ccc65)CC4)cc3C2=O)C(=O)N1 [GT-07529, 2-(2,4-dioxotetrahydropyrimidin-1(2H)-yl)-5-((4-(5-fluoro-1H-benzo[d]imidazol-1-yl)piperidin-1-yl)methyl)isoindoline-1,3-dione]							B (80%< substrate protein remaining %≤ 100%)	B (80%< substrate protein remaining %≤ 100%)	B (80%< substrate protein remaining %≤ 100%)	B (80%< substrate protein remaining %≤ 100%)	A (0% ≤ substrate protein remaining % ≤ 80%)	A (0% ≤ substrate protein remaining % ≤ 80%)
O=C1CCN(N2Cc3cc(CN4CCC(c5noc6cc(F)ccc56)CC4)ccc3C2=O)C(=O)N1 [GT-04864, 1-(5-((4-(6-fluorobenzo[d]isoxazol-3-yl)piperidin-1-yl)methyl)-1-oxoisoindolin-2-yl)dihydropyrimidine-2,4(1H,3H)-dione]	B ("B" is defined as 80%< substrate protein remaining %≤ 100%)	A ("A" is defined as 0% ≤ substrate protein remaining % ≤ 80%)	B ("B" is defined as 80%< substrate protein remaining %≤ 100%)	B ("B" is defined as 80%< substrate protein remaining %≤ 100%)	B ("B" is defined as 80%< substrate protein remaining %≤ 100%)	A ("A" is defined as 0% ≤ substrate protein remaining % ≤ 80%)						
O=C1CCN(N2C(=O)c3ccc(CN4CCN(c5ccc(F)cc5)CC4)cc3C2=O)C(=O)N1 [GT-06725, 2-(2,4-dioxotetrahydropyrimidin-1(2H)-yl)-5-((4-(4-fluorophenyl)piperazin-1-yl)methyl)isoindoline-1,3-dione]	B ("B" is defined as 80%< substrate protein remaining %≤ 100%)	A ("A" is defined as 0% ≤ substrate protein remaining % ≤ 80%)	B ("B" is defined as 80%< substrate protein remaining %≤ 100%)	B ("B" is defined as 80%< substrate protein remaining %≤ 100%)	B ("B" is defined as 80%< substrate protein remaining %≤ 100%)	B ("B" is defined as 80%< substrate protein remaining %≤ 100%)						
O=C1CCN(N2C(=O)c3ccc(CN4C[C@H]5C[C@@H]4CN5c4cccc(Cl)c4Cl)cc3C2=O)C(=O)N1 [GT-07435, 5-(((1R,4R)-5-(2,3-dichlorophenyl)-2,5-diazabicyclo[2.2.1]heptan-2-yl)methyl)-2-(2,4-dioxotetrahydropyrimidin-1(2H)-yl)isoindoline-1,3-dione]							B (80%< substrate protein remaining %≤ 100%)	B (80%< substrate protein remaining %≤ 100%)	B (80%< substrate protein remaining %≤ 100%)	B (80%< substrate protein remaining %≤ 100%)	A (0% ≤ substrate protein remaining % ≤ 80%)	B (80%< substrate protein remaining %≤ 100%)
